Results taken from ChEMBL document CHEMBL1147146, “Cells lacking DNA topoisomerase II beta are resistant to genistein” (J Nat Prod, 2007).
Calls of active or inactive are those of the source. The calls are words filed in the database; no cut-off is given here.

Legend:
K562 = experiment: Growth inhibition of K562 cells by XTT assay after 5 days; assay type: functional, cell-based; conditions: Homo sapiens, K562, 120 h
[1] = target: T1, DNA topoisomerase 1 (Homo sapiens) (UniProt P11387); experiment: Induction of topoisomerase 1-DNA complexes in K562 cells assessed as integrated green fluorescence at 175 uM after 0.5 hrs by TARDIS assay; assay type: cell-based
T1 sequence (whole entry): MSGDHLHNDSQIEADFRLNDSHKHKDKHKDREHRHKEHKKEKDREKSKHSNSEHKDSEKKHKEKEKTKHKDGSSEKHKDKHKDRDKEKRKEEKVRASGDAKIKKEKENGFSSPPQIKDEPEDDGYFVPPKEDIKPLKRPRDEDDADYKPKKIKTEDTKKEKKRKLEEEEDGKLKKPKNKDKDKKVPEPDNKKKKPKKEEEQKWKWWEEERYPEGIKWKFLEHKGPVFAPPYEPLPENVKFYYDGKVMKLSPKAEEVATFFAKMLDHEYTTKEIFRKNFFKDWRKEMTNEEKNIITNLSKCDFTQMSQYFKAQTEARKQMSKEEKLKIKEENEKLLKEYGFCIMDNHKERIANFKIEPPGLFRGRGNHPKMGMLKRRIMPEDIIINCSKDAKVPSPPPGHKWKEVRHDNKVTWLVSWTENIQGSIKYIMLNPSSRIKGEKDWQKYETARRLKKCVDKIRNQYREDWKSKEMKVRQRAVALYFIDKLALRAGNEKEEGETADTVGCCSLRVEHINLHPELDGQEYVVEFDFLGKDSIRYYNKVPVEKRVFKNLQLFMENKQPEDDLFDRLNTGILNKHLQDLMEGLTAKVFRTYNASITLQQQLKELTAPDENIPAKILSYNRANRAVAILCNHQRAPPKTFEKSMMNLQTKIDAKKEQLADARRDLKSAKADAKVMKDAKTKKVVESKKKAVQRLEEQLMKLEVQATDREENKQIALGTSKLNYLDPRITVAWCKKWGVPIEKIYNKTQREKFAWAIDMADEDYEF

[2] = target: T1, DNA topoisomerase 1 (Homo sapiens); experiment: Induction of topoisomerase 1-DNA complexes in K562 cells assessed as integrated green fluorescence at 175 uM after 2 hrs by TARDIS assay; assay type: cell-based
[3] = target: T1, DNA topoisomerase 1 (Homo sapiens); experiment: Induction of topoisomerase 1-DNA complexes in K562 cells assessed as integrated green fluorescence at 175 uM after 6 hrs by TARDIS assay; assay type: cell-based
[4] = target: T1, DNA topoisomerase 1 (Homo sapiens); experiment: Induction of topoisomerase 1-DNA complexes in K562 cells assessed as integrated green fluorescence at 175 uM after 24 hrs by TARDIS assay; assay type: cell-based
Mus musculus [5] = species on record: Mus musculus; experiment: Growth inhibition of mouse topoisomerase 2-beta -/- cells at 100 to 300 uM after 4 hrs by XTT assay; assay type: functional
Mus musculus [6] = species on record: Mus musculus; experiment: Growth inhibition of mouse topoisomerase 2-beta +/+ cells at 100 to 300 uM after 4 hrs by XTT assay; assay type: functional
[7] = Survival of mouse wild-type topoisomerase 2beta +/+cells at 100 uM after 4 hrs by colonogenic assay; assay type: functional
[8] = Survival of mouse topoisomerase 2-beta -/- cells at 100 uM after 4 hrs by colonogenic assay; assay type: functional
[9] = Growth inhibition of mouse topoisomerase 2-beta -/- cells at 300 uM after 4 hrs by colonogenic assay; assay type: functional; set-up: scale not given: the % may be the effect or the level left
[10] = Growth inhibition of mouse knock out topoisomerase 2-beta -/- cells after 4 hrs by colonogenic assay; assay type: functional
[11] = Growth inhibition of mouse wild-type topoisomerase 2-beta +/+ cells after 4 hrs by colonogenic assay; assay type: functional
[12] = target: DNA topoisomerase 2-beta (Homo sapiens) (UniProt Q02880); experiment: Induction of human recombinant topoisomerase 2beta-DNA complex in K562 cells assessed as integrated fluorescence at 175 uM after 2 hrs by TARDIS assay; assay type: cell-based
[13] = target: DNA topoisomerase 2-alpha (Homo sapiens) (UniProt P11388); experiment: Induction of human recombinant topoisomerase 2-DNA complexes in K562 cells assessed as integrated green fluorescence at 175 uM after 0.5 hrs by TARDIS assay; assay type: cell-based
[14] = target: DNA topoisomerase 2-alpha (Homo sapiens) (UniProt P11388); experiment: Induction of human recombinant topoisomerase 2-DNA complexes in K562 cells assessed as integrated green fluorescence at 175 uM after 2 hrs by TARDIS assay; assay type: cell-based
[15] = target: DNA topoisomerase 2-alpha (Homo sapiens) (UniProt P11388); experiment: Induction of human recombinant topoisomerase 2-DNA complexes in K562 cells assessed as integrated green fluorescence at 175 uM after 6 hrs by TARDIS assay; assay type: cell-based
[16] = target: DNA topoisomerase 2-alpha (Homo sapiens) (UniProt P11388); experiment: Induction of human recombinant topoisomerase 2-DNA complexes in K562 cells assessed as integrated green fluorescence at 175 uM after 24 hrs by TARDIS assay; assay type: cell-based
[17] = target: T1, DNA topoisomerase 1 (Homo sapiens); experiment: Inhibition of topoisomerase 1 assessed as reduction of camptothecin-induced topo 1-DNA complexes in K562 cells by measuring integrated fluorescence at 17 uM after 24 hrs by TARDIS assay; assay type: cell-based
[18] = target: T1, DNA topoisomerase 1 (Homo sapiens); experiment: Inhibition of topoisomerase 1 assessed as reduction of camptothecin-induced topo 1-DNA complexes in K562 cells by measuring integrated fluorescence at 175 uM after 24 hrs by TARDIS assay; assay type: cell-based
[19] = target: DNA topoisomerase 2-alpha (Homo sapiens) (UniProt P11388); experiment: Inhibition of human recombinant topoisomerase 2 assessed as reduction of etoposide-induced topo 2-DNA complexes in K562 cells by measuring integrated fluorescence at 17 uM after 24 hrs by TARDIS assay; assay type: cell-based
[20] = target: DNA topoisomerase 2-alpha (Homo sapiens) (UniProt P11388); experiment: Inhibition of human recombinant topoisomerase 2 assessed as reduction of etoposide-induced topo 2-DNA complexes in K562 cells by measuring integrated fluorescence at 175 uM after 24 hrs by TARDIS assay; assay type: cell-based
[21] = target: DNA topoisomerase 2-alpha (Homo sapiens) (UniProt P11388); experiment: Inhibition of human recombinant topoisomerase 2 assessed as reduction of etoposide-induced topo 2-DNA complexes in K562 cells by measuring integrated fluorescence at 14 uM after 24 hrs by TARDIS assay; assay type: cell-based
[22] = target: DNA topoisomerase 2-alpha (Homo sapiens) (UniProt P11388); experiment: Inhibition of human recombinant topoisomerase 2 assessed as reduction of etoposide-induced topo 2-DNA complexes in K562 cells by measuring integrated fluorescence at 146 uM after 24 hrs by TARDIS assay; assay type: cell-based
[23] = target: T1, DNA topoisomerase 1 (Homo sapiens); experiment: Induction of topoisomerase 1-DNA complexes in K562 cells assessed as integrated green fluorescence at 146 uM after 0.5 hrs by TARDIS assay; assay type: cell-based
[24] = target: T1, DNA topoisomerase 1 (Homo sapiens); experiment: Induction of topoisomerase 1-DNA complexes in K562 cells assessed as integrated green fluorescence at 146 uM after 2 hrs by TARDIS assay; assay type: cell-based
[25] = target: T1, DNA topoisomerase 1 (Homo sapiens); experiment: Induction of topoisomerase 1-DNA complexes in K562 cells assessed as integrated green fluorescence at 146 uM after 6 hrs by TARDIS assay; assay type: cell-based
[26] = target: T1, DNA topoisomerase 1 (Homo sapiens); experiment: Induction of topoisomerase 1-DNA complexes in K562 cells assessed as integrated green fluorescence at 146 uM after 24 hrs by TARDIS assay; assay type: cell-based
[27] = target: DNA topoisomerase 2-alpha (Homo sapiens) (UniProt P11388); experiment: Induction of human recombinant topoisomerase 2-DNA complexes in K562 cells assessed as integrated green fluorescence at 146 uM after 0.5 hrs by TARDIS assay; assay type: cell-based
[28] = target: DNA topoisomerase 2-alpha (Homo sapiens) (UniProt P11388); experiment: Induction of human recombinant topoisomerase 2-DNA complexes in K562 cells assessed as integrated green fluorescence at 146 uM after 2 hrs by TARDIS assay; assay type: cell-based
[29] = target: DNA topoisomerase 2-alpha (Homo sapiens) (UniProt P11388); experiment: Induction of human recombinant topoisomerase 2-DNA complexes in K562 cells assessed as integrated green fluorescence at 146 uM after 6 hrs by TARDIS assay; assay type: cell-based
[30] = target: DNA topoisomerase 2-alpha (Homo sapiens) (UniProt P11388); experiment: Induction of human recombinant topoisomerase 2-DNA complexes in K562 cells assessed as integrated green fluorescence at 146 uM after 24 hrs by TARDIS assay; assay type: cell-based
[31] = target: T1, DNA topoisomerase 1 (Homo sapiens); experiment: Inhibition of topoisomerase 1 assessed as reduction of camptothecin-induced topo 1-DNA complexes in K562 cells by measuring integrated fluorescence at 14 uM after 24 hrs by TARDIS assay; assay type: cell-based
[32] = target: T1, DNA topoisomerase 1 (Homo sapiens); experiment: Inhibition of topoisomerase 1 assessed as reduction of camptothecin-induced topo 1-DNA complexes in K562 cells by measuring integrated fluorescence at 146 uM after 24 hrs by TARDIS assay; assay type: cell-based
[33] = target: DNA topoisomerase 2-beta (Homo sapiens) (UniProt Q02880); experiment: Induction of human recombinant topoisomerase 2beta-DNA complex in K562 cells assessed as integrated fluorescence at 10 uM after 2 hrs by TARDIS assay; assay type: cell-based
[34] = target: DNA topoisomerase 2-alpha (Homo sapiens) (UniProt P11388); conditions: K562
Description: Induction of human recombinant topoisomerase 2-DNA complexes in K562 cells assessed as integrated green fluorescence at 10 times their IC50 after 2 hrs by TARDIS assay

[35] = target: DNA topoisomerase 2-alpha (Homo sapiens) (UniProt P11388); conditions: K562; remark: listed apart in the source
Description: Induction of human recombinant topoisomerase 2-DNA complexes in K562 cells assessed as integrated green fluorescence at 10 times their IC50 after 8 hrs by TARDIS assay

[36] = target: DNA topoisomerase 2-alpha (Homo sapiens) (UniProt P11388); conditions: K562; remark: listed apart in the source
Description: Induction of human recombinant topoisomerase 2-DNA complexes in K562 cells assessed as integrated green fluorescence at 10 times their IC50 after 24 hrs by TARDIS assay

[37] = target: DNA topoisomerase 2-alpha (Homo sapiens) (UniProt P11388); conditions: K562, 10 uM
Description: Induction of human recombinant topoisomerase 2-DNA complexes in K562 cells assessed as integrated green fluorescence at 10 uM after 2 hrs by TARDIS assay

[38] = target: T1, DNA topoisomerase 1 (Homo sapiens); conditions: K562, 10 uM
Description: Induction of topoisomerase 1-DNA complexes in K562 cells assessed as integrated green fluorescence at 10 uM after 1 hr by TARDIS assay

[39] = target: T1, DNA topoisomerase 1 (Homo sapiens); conditions: K562
Description: Induction of topoisomerase 1-DNA complexes in K562 cells assessed as integrated green fluorescence at 10 times their IC50 after 2 hrs by TARDIS assay

[40] = target: T1, DNA topoisomerase 1 (Homo sapiens); conditions: K562; remark: listed apart in the source
Description: Induction of topoisomerase 1-DNA complexes in K562 cells assessed as integrated green fluorescence at 10 times their IC50 after 8 hrs by TARDIS assay

[41] = target: T1, DNA topoisomerase 1 (Homo sapiens); conditions: K562; remark: listed apart in the source
Description: Induction of topoisomerase 1-DNA complexes in K562 cells assessed as integrated green fluorescence at 10 times their IC50 after 24 hrs by TARDIS assay

Chain of DNA topoisomerase 2-alpha (Homo sapiens) (P11388 whole entry): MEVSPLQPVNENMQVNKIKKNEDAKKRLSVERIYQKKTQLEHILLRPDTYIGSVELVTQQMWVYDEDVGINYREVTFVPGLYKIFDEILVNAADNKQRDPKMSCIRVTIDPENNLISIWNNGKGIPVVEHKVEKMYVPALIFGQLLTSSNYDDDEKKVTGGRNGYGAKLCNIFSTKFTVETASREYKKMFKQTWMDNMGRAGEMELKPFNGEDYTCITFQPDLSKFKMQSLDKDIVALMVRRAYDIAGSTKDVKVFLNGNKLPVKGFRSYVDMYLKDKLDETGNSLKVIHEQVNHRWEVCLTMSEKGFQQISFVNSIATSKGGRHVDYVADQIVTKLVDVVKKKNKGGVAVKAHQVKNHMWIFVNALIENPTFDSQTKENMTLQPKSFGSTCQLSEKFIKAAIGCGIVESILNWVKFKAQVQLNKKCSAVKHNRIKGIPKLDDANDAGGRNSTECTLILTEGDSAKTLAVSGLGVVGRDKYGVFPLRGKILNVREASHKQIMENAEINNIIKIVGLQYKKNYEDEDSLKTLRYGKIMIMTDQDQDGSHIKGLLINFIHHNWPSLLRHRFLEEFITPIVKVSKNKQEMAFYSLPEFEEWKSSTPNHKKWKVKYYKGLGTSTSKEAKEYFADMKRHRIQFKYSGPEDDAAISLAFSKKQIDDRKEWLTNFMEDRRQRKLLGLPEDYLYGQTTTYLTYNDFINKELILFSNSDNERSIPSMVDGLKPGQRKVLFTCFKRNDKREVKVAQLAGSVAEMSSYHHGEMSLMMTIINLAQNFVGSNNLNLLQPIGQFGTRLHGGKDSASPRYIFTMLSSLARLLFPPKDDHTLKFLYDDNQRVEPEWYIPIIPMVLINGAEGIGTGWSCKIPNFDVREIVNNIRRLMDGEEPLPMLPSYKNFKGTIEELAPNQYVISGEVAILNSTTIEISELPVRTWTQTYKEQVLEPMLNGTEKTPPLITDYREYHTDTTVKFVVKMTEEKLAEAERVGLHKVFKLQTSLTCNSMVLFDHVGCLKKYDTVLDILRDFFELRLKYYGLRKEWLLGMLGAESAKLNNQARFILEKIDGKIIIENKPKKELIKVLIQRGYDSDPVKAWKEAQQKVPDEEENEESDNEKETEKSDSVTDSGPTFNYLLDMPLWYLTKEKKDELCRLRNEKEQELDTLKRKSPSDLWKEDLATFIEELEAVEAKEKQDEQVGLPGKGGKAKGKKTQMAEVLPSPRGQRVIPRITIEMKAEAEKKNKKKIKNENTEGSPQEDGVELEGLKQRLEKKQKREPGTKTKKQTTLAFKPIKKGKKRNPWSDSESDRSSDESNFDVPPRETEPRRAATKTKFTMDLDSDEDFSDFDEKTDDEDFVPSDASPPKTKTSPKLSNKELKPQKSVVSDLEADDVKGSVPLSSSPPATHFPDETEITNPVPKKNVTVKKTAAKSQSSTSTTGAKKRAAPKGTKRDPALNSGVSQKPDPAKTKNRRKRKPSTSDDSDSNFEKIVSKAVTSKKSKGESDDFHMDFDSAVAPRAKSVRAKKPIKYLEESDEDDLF
Chain of DNA topoisomerase 2-beta (Homo sapiens) (Q02880 whole entry): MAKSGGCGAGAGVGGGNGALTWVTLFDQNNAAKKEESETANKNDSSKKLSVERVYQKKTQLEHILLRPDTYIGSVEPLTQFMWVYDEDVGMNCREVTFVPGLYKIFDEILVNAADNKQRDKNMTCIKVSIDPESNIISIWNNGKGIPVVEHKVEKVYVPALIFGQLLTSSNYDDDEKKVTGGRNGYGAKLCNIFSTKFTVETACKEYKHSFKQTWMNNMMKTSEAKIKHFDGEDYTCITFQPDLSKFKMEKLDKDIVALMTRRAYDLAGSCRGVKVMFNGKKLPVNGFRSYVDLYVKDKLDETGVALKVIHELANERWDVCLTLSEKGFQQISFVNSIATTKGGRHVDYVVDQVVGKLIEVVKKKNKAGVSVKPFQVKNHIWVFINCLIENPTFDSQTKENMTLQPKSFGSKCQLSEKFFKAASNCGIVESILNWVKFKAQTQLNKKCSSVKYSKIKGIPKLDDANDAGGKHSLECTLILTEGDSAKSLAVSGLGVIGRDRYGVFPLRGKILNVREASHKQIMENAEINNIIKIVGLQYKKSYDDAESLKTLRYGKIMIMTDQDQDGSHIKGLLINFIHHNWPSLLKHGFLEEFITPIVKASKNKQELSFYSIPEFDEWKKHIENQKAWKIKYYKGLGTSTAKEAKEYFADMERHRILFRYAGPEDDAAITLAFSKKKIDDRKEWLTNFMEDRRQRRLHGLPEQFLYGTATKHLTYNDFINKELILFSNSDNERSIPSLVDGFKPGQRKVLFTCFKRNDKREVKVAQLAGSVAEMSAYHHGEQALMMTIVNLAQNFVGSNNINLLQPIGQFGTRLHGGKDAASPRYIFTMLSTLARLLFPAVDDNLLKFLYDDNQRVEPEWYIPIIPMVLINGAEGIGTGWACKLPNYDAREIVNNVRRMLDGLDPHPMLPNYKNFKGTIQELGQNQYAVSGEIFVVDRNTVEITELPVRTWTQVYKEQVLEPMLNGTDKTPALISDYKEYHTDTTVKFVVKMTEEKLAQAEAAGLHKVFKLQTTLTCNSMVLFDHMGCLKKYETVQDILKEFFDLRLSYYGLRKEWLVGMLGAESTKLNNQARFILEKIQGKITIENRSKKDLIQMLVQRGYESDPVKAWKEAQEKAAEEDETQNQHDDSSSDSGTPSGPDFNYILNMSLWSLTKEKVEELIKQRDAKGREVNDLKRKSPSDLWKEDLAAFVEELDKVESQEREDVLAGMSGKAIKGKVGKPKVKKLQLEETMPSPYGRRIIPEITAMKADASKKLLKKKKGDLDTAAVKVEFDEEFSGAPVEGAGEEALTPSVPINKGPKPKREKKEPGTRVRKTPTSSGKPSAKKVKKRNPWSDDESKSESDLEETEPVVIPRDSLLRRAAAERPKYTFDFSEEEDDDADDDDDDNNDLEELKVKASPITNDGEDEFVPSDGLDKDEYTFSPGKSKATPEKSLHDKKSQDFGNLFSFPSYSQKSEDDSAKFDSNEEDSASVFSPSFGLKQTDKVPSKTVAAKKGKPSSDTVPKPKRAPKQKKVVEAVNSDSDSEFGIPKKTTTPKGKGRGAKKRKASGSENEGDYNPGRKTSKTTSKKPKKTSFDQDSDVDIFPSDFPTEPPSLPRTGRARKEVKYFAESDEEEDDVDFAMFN

O=c1c(-c2ccc(O)cc2)coc2cc(O)cc(O)c12 [GENISTEIN]
IC50 (K562): 17.6 µM
Fluorescence intensity [1]: 0.96
Fluorescence intensity [2]: 0.44
Fluorescence intensity [3]: 0.44
Fluorescence intensity [4]: 0.18
Activity (Mus musculus [5]): inactive
Activity (Mus musculus [6]): Active
Activity [7]: 0%
Activity [8]: 50%
Activity [9]: 50%
IC50 [10]: 300 µM
IC50 [11]: 47 µM
Fluorescence intensity [12]: 12700
Fluorescence intensity [13]: 7.03
Fluorescence intensity [14]: 20.4
Fluorescence intensity [15]: 7.03
Fluorescence intensity [16]: 12.6
Fluorescence intensity [17]: 112%
Fluorescence intensity [18]: 148%
Fluorescence intensity [19]: 95%
Fluorescence intensity [20]: 67%

O=c1cc(-c2ccc(O)c(O)c2)oc2cc(O)cc(O)c12 [LUTEOLIN]
Fluorescence intensity [21]: 133%
Fluorescence intensity [22]: 85%
IC50 (K562): 14.7 µM
Fluorescence intensity [23]: 0.49
Activity [24]: 0.28
Fluorescence intensity [25]: 0.51
Fluorescence intensity [26]: 0.19
Fluorescence intensity [27]: 3.17
Activity [28]: 4.08
Fluorescence intensity [29]: 7.39
Fluorescence intensity [30]: 5.05
Fluorescence intensity [31]: 99%
Fluorescence intensity [32]: 52%

COc1cc([C@@H]2c3cc4c(cc3[C@@H](O[C@@H]3O[C@@H]5CO[C@@H](C)O[C@H]5[C@H](O)[C@H]3O)[C@H]3COC(=O)[C@H]23)OCO4)cc(OC)c1O
Fluorescence intensity [33]: 3940
Fluorescence intensity [34]: 13.2
Fluorescence intensity [35]: 20.9
Fluorescence intensity [36]: 23.4
Fluorescence intensity [37]: 49.4

CC[C@@]1(O)C(=O)OCc2c1cc1n(c2=O)Cc2cc3ccccc3nc2-1
Fluorescence intensity [38]: 11.4
Fluorescence intensity [39]: 2.51
Fluorescence intensity [40]: 1.58
Fluorescence intensity [41]: 1.04
